These results are taken from publication PMC4744035, “In Vivo, In Vitro, and In Silico Characterization of Peptoids as Antimicrobial Agents” (PLoS ONE, 2016).

Data set [1] concerns erythrocytes. Nature of the data set: Hemolytic activity (HD10/HD50). It is filed as cell-based. The source says:
Table 1 Characteristics of antimicrobial peptoids, screened for activity against B. subtilis and E. coli bacterial strains. | column: HD10 / HD50

Data set [2] concerns E. coli ATCC 35218. In kind it is cell-based. The protocol:
MICs against B. subtilis and E. coli screening bacterial strains were determined using serial dilution in 96-well microtiter plates in accordance with CLSI M7-A6 protocols. Briefly, peptoid solution in cation-adjusted Mueller-Hinton broth was prepared by 2:1 serial dilution with a total volume of 50 µL per well. In experimental wells, 50 µL of bacterial inoculums (1 x 10^6 CFU/mL) were added to the peptoid solutions. Positive controls consisted of 50 µL inoculums added to 50 µL cation-adjusted Mueller-Hinton broth containing no peptoid, while negative controls contained only cation-adjusted Mueller-Hinton broth. […] Experiments were reproducible among three independent replicates, each consisting of two parallel trials.

Data set [3] deals with K. pneumonia 63575 (ESBL). Nature of the data set: microbe, parasite or virus in culture. The protocol: (§1) The MICs of test agents were measured using a modified broth micro-dilution method in Difco Mueller Hinton medium, on a panel of bacterial pathogens that were both susceptible and resistant to common antibiotics (S1 File). Briefly, serial dilutions were performed in 0.01% acetic acid containing 0.2% bovine serum albumin at 10-fold the desired final concentration. Ten μL of the 10-fold concentrated test reagents were added to each well of a 96-well polypropylene microtitre plate containing 90 μL of Mueller Hinton media per well. Bacteria were added to the plate from an overnight culture at a final concentration of 2–7 x 10^5 CFU/mL and incubated overnight at 37°C. The MIC is defined as the concentration at which no growth was observed.
(§2) Screening of peptoid antimicrobial activity against a panel of multidrug resistant superbugs was done according to the protocol described in the manuscript. The bacterial strains used in this panel included; P. aeruginosa PAO1 strain H103 [1], P. maltophilia ATCC#13637, S. aureus ATCC#25923 [1], E. faecalis ATCC#29212 [2], and E. cloacae 218R, constitutively expressing Class C chromosomal β-lactamase, were from the Hancock lab strains collection. An MRSA clinical isolate was kindly provided by Anthony Chow (Vancouver General Hospital, Vancouver, Canada). Two Klebsiella pneumoniae and two E. coli clinical isolates expressing extended spectrum β-lactamases (ESBL) were kindly provided by George Zhanel (Health Sciences Centre, Winnipeg, Canada). Vancomycin-resistant clinical isolates of Enterococcus faecalis and E. faecium were obtained from Ana M. Paccagnella (BC Centre for Disease Control, Vancouver, Canada). Three clinical isolates (#9, #198 and #213) of multi-drug resistant P. aeruginosa, were kindly provided by Carlos Kiffer (University of São Paulo, Brazil). […] Three P. aeruginosa clinical isolates of the Liverpool epidemic strain (LES) (H1027, H1030 and LES400) were all kindly provided by Craig Winstanley (University of Liverpool, UK). […] All tested bacterial strains were categorized as biohazard level 2 pathogens.

Data set [4] deals with K. pneumonia 61962 (ESBL). Nature of the data set: microbe, parasite or virus in culture. The protocol:
as §1, §2

The test system of data set [5] is P. aeruginosa 198 (MDR). Nature of the data set: microbe, parasite or virus in culture. On the procedure:
as §1, §2

Data set [6] has as its system E. faecium T62764 (VRE). Nature of the data set: microbe, parasite or virus in culture. On the procedure:
as §1, §2

Data set [7] has as its system P. aeruginosa 9 (MDR). Nature of the data set: microbe, parasite or virus in culture. On the procedure:
as §1, §2

The subject of data set [8] is S. aureus C623 (MRSA). Nature of the data set: microbe, parasite or virus in culture. On the procedure: as §1, §2
Data set [9] relates to P. aeruginosa H103 (wild type). Nature of the data set: microbe, parasite or virus in culture. The protocol: as §1, §2
Data set [10] relates to E. faecalis ATCC29212. Nature of the data set: microbe, parasite or virus in culture. The note with it: ATCC29212. The protocol:
as §1, §2

In data set [11] the test system is E. coli 64771 (ESBL). Nature of the data set: microbe, parasite or virus in culture. On the procedure: as §1, §2
Data set [12] has as its system P. aeruginosa LES400 (MDR). Nature of the data set: microbe, parasite or virus in culture. The protocol:
as §1, §2

For data set [13], the system named is E. coli 63103 (ESBL). Nature of the data set: microbe, parasite or virus in culture. On the procedure: as §1, §2
The test system of data set [14] is E. cloacae 218R Class C β-lactamase. Nature of the data set: microbe, parasite or virus in culture. The protocol:
as §1, §2

Data set [15] relates to P. aeruginosa H1027 (MDR). Nature of the data set: microbe, parasite or virus in culture. On the procedure:
as §1, §2

Data set [16] has as its system E. faecium mic80 (VRE). Nature of the data set: microbe, parasite or virus in culture. On the procedure:
as §1, §2

Data set [17] deals with P. maltophilia ATCC13637. Nature of the data set: microbe, parasite or virus in culture. The note with it: ATCC13637. On the procedure: as §1, §2
The test system of data set [18] is S. aureus ATCC25923. Nature of the data set: microbe, parasite or virus in culture. The note with it: ATCC25923. On the procedure:
as §1, §2

Data set [19] relates to E. faecalis F43559 (VRE). Nature of the data set: microbe, parasite or virus in culture. On the procedure:
as §1, §2

The subject of data set [20] is P. aeruginosa 213 (MDR). Nature of the data set: microbe, parasite or virus in culture. On the procedure:
as §1, §2

Data set [21] concerns E. faecalis W61950 (VRE). Nature of the data set: microbe, parasite or virus in culture. The protocol:
as §1, §2

Data set [22] deals with P. aeruginosa H1030 (MDR). Nature of the data set: microbe, parasite or virus in culture. The note with it: P. aeruginosa H1030 (MDR). On the procedure:
as §1, §2

Each structure is given as a SMILES string. Converted amounts (≈) assume the structure as drawn. Like-named read-outs stand apart in the source and are kept apart here. Numbered stars: 1 amine (or outer) side, 2 acyl side, 3 side chain; on linkers, the order of the positions; unused ones are H or OH. Square brackets hold non-standard residues; d marks the D form. Peptide text beside a SMILES is read from it. X2 = C[C@@H](c1cccc2ccccc12)N(CC(=O)[*:2])[*:1]; Nspe = C[C@H](NCC(=O)O)c1ccccc1; Nlys = NCCCCNCC(=O)O

Turning to `C[C@@H](c1ccccc1)N(CC(N)=O)C(=O)CN(C(=O)CN(CCCCN)C(=O)CN(Cc1ccccc1)C(=O)CN(Cc1ccccc1)C(=O)CN(CCCCN)C(=O)CN(C(=O)CN(C(=O)CN(CCCCN)C(=O)CN(Cc1ccccc1)C(=O)CN(Cc1ccccc1)C(=O)CNCCCCN)[C@@H](C)c1ccccc1)[C@@H](C)c1ccccc1)[C@@H](C)c1ccccc1` [1-Npm2,3,8,9, H-(NLys-Npm-Npm-NLys-Nspe-Nspe)2-NH2], the “HD10 (hemolytic activity)” value in [1] came to 39. The “HD50 (hemolytic activity)” value in data set [1] was more than 200. The “MIC E. coli” value in data set [2] was 6.3 µM (≈ 11.1 µg/mL). Moreover, the MIC in data set [3] worked out at 16 µg/mL (≈ 9.07 µM); in data set [4], 32 µg/mL (≈ 18.1 µM); in [5] (198 (MDR)), 8 µg/mL (≈ 4.54 µM); in data set [6] (T62764 (VRE)) it was 1 µg/mL (≈ 0.567 µM); in [7] (9 (MDR)), 64 µg/mL (≈ 36.3 µM); in data set [8] (C623), 2 µg/mL (≈ 1.13 µM). The MIC in data set [9] (H103 (wild type)) is 4 µg/mL (≈ 2.27 µM); in [10], 4 µg/mL (≈ 2.27 µM); in data set [11] (64771 (ESBL)), 4 µg/mL (≈ 2.27 µM); in data set [12] (LES400 (MDR)) it was 4 µg/mL (≈ 2.27 µM); in [13] (63103 (ESBL)), 8 µg/mL (≈ 4.54 µM); in [14] (218R Class C β-lactamase), 8 µg/mL (≈ 4.54 µM). The MIC in data set [15] (H1027 (MDR)) was determined as 2 µg/mL (≈ 1.13 µM); in data set [16] (mic80 (VRE)) it was 4 µg/mL (≈ 2.27 µM); in [17] it was 1 µg/mL (≈ 0.567 µM); in [18], 2 µg/mL (≈ 1.13 µM); in data set [19] (F43559 (VRE)) it was 8 µg/mL (≈ 4.54 µM); in [20] (213 (MDR)), 4 µg/mL (≈ 2.27 µM). The MIC in [21] (W61950 (VRE)) worked out at 8 µg/mL (≈ 4.54 µM); in [22], 16 µg/mL (≈ 9.07 µM).
For `C[C@@H](c1ccccc1)N(CC(=O)N(CCCCN)CC(=O)N(CC(=O)N(CC(=O)N(CCCCN)CC(=O)N(CC(=O)N(CC(=O)N(CCCCN)CC(=O)N(CC(=O)N(CC(N)=O)[C@@H](C)c1cccc2ccccc12)[C@@H](C)c1ccccc1)[C@@H](C)c1ccccc1)[C@@H](C)c1ccccc1)[C@@H](C)c1cccc2ccccc12)[C@@H](C)c1ccccc1)C(=O)CN(C(=O)CNCCCCN)[C@@H](C)c1ccccc1` [1-Nsna6,12, H-(NLys-Nspe-Nspe-NLys-Nspe-Nsna)2-NH2] (H-[Nlys][Nspe][Nspe][Nlys][Nspe][X2][Nlys][Nspe][Nspe][Nlys][Nspe][X2]-NH2), the MIC in data set [3] was 32 µg/mL (≈ 16.7 µM); in [4] it was 64 µg/mL (≈ 33.3 µM); in data set [5] (198 (MDR)), 16 µg/mL (≈ 8.34 µM); in data set [6] (T62764 (VRE)), 2 µg/mL (≈ 1.04 µM); in data set [7] (9 (MDR)) it was 128 µg/mL (≈ 66.7 µM); in data set [8] (C623), 4 µg/mL (≈ 2.08 µM). In addition, the MIC in data set [9] (H103 (wild type)) came out at 4 µg/mL (≈ 2.08 µM); in data set [10] it was 4 µg/mL (≈ 2.08 µM); in [11] (64771 (ESBL)), 8 µg/mL (≈ 4.17 µM); in [12] (LES400 (MDR)) it was 8 µg/mL (≈ 4.17 µM); in data set [13] (63103 (ESBL)), 16 µg/mL (≈ 8.34 µM); in [14] (218R Class C β-lactamase), 32 µg/mL (≈ 16.7 µM). In addition, the MIC in data set [15] (H1027 (MDR)) was found to be 2 µg/mL (≈ 1.04 µM); in data set [16] (mic80 (VRE)) it was 4 µg/mL (≈ 2.08 µM); in data set [17], 1 µg/mL (≈ 0.521 µM); in data set [18], 4 µg/mL (≈ 2.08 µM); in data set [19] (F43559 (VRE)), 8 µg/mL (≈ 4.17 µM); in data set [20] (213 (MDR)), 8 µg/mL (≈ 4.17 µM). Moreover, the values for the MIC in [21] (W61950 (VRE)) and in data set [22] were 16 µg/mL (≈ 8.34 µM) and 32 µg/mL (≈ 16.7 µM), respectively.
For the molecule `CC(C)(O/N=C(\C(=O)N[C@@H]1C(=O)N2C(C(=O)[O-])=C(C[n+]3ccccc3)CS[C@H]12)c1csc(N)n1)C(=O)O` [Ceftazidime, reference compound], the MIC in data set [3] (Klebsiella pneumoniae) was more than 128 µg/mL; in [4] (Klebsiella pneumoniae), more than 128 µg/mL; in [5] (Pseudomonas aeruginosa), 128 µg/mL (≈ 234 µM); in data set [6] (Enterococcus faecium, VRE), more than 128 µg/mL; in [7] (Pseudomonas aeruginosa), more than 128 µg/mL; in data set [8] (Staphylococcus aureus, MRSA) it was 64 µg/mL (≈ 117 µM). The MIC in data set [9] (Pseudomonas aeruginosa) was 2 µg/mL (≈ 3.66 µM); in data set [10] (Enterococcus faecalis) it was 128 µg/mL (≈ 234 µM); in data set [11] (Escherichia coli) it was more than 128 µg/mL; in data set [12] (Pseudomonas aeruginosa), 32 µg/mL (≈ 58.5 µM); in data set [13] (Escherichia coli), 128 µg/mL (≈ 234 µM); in data set [14] (Enterobacter cloacae), 32 µg/mL (≈ 58.5 µM). For the same molecule, the MIC in [15] (Pseudomonas aeruginosa) is 128 µg/mL (≈ 234 µM); in [16] (Enterococcus faecium, VRE) it was more than 128 µg/mL; in data set [17] (Stenotrophomonas maltophilia), 0.3 µg/mL (≈ 0.549 µM); in data set [18] (Staphylococcus aureus), 16 µg/mL (≈ 29.3 µM); in [19] (Enterococcus faecalis, VRE), more than 128 µg/mL; in [20] (Pseudomonas aeruginosa) it was more than 128 µg/mL. Besides, the MIC in data set [21] (Enterococcus faecalis, VRE) is more than 128 µg/mL.
